Consider seven compounds from US6080859A, “Pyrroloindole derivatives and intermediates in producing the same” (priority 1997, dated 2000).

SMILES strings stand for the structures. Counter-ions that a name gives are not always drawn. Like-named read-outs stand apart in the source and are kept apart here. Where only a bound is given, the exact number is not on record here.

The subject of series [1] is M5076/ADR cells (adriamycin-resistant strain). Nature of the series: Evaluation with mouse bearing M5076/ADR cells (adriamycin-resistant strain) transplanted subcutaneously. Format: in vivo, mouse (female, BDFI strain). To be noted: 1.0 mg/kg, single injection into tail vein nine days after transplantation; tumor weighed 13 days after injection. The protocol:
Evaluation with mouse bearing M5076/ADR cells (adriamycin-resistant strain) transplanted subcutaneously:
M5076/ADR cells (adriamycin-resistant strain) were transplanted subcutaneously at the axillary region of female mice (BDFI strain, 8 week age) in an amount of 3.0×10^6 cells for an individual mouse. Nine days after the transplantation, the test compound solution was injected once into the tail vein. After 13 days from the injection, the tumor was excised and weighed. The antitumor activity was evaluated by the ratio (T/C) of the average tumor weight (T) of the administrated group to the average tumor weight (C) of control group to which solvent was administrated.

Series [2] can be described thus: Decomposition reaction under chemical conditions (half life in buffer solution of pH 7.4, HPLC). In kind it is physicochemical. To be noted: ph 7.4 buffer/dma, pH 7.4 buffer / N,N-dimethylacetamide 50 v/v%, 37° C. The protocol: Decomposition reaction under chemical conditions:
A buffer solution of pH 7.4 was prepared by mixing suitably an aqueous 0.1 M citric acid solution and an aqueous 0.2 M disodium hydrogenphosphate solution. The buffer solution was diluted tenfold with water. This buffer solution was further dissolved in N,N-dimethylacetamide at a concentration of 50 v/v%, and its pH was adjusted to 7.4 by adding suitable amount of aqueous 0.1 M citric acid solution to prepare a buffer solution. The test compounds were dissolved respectively in the buffer solution at a concentration of 5 μM to prepare the test sample solutions. The test sample solutions were placed respectively in a glass vial, and the glass vials were kept at 37° C. in a thermostat. The change of the concentration of remaining test compounds with lapse of time was determined quantitatively intermittently by high performance liquid chromatography (HPLC) to measure the half life (t1/2 : hours).

Setting [3] is: * Average of the half lives of the diastereomers, read-out: Half life (t1/2), average of the half lives of the diastereomers (converted).
Where [4] appears, read: read-out: Half life (t1/2) (converted).

Turning to `COC(=O)c1c(C(F)(F)F)[nH]c2c(OC(=O)N3CCCCC3CO)cc3c(c12)[C@H](CCl)CN3C(=O)c1cc2cc(NC(=O)c3cc4cccc(OC)c4o3)ccc2[nH]1` (mixture of isomers) [Example 4, methyl (1S)-chloromethyl-5-{[(2RS)-hydroxymethylpiperidin-1-ylcarbonyl]oxy}-3-[5-(7-methoxybenzofuran-2-ylcarbonyl)amino-1H-indol-2-ylcarbonyl]-7-trifluoromethyl-1,2,3,6-tetrahydropyrrolo[3,2-e]indole-8-carboxylate], the “T/C (ratio of average tumor weight of administrated group to control group)” value in series [1] is reported as 0.01. For the same compound, the half-life at 5 µM in series [2] (setting [3]) is more than 8 h.

Regarding `COC(=O)c1c(C(F)(F)F)[nH]c2c(OC(=O)N3CCN(C)CC3CO)cc3c(c12)[C@H](CCl)CN3C(=O)c1cc2cc(NC(=O)c3cc4cccc(OC)c4o3)ccc2[nH]1` (stereo partly drawn) [Example 5, hydrochloride of methyl (1S)-chloromethyl-5-{[(2RS)-hydroxymethyl-4-methylpiperazin-1-ylcarbonyl]oxy}-3-[5-(7-methoxybenzofuran-2-ylcarbonyl)amino-1H-indol-2-ylcarbonyl]-7-trifluoromethyl-1,2,3,6-tetrahydropyrrolo[3,2-e]indole-8-carboxylate], the “T/C (ratio of average tumor weight of administrated group to control group)” value in series [1] was 0.01. In addition, the half-life at 5 µM in series [2] (setting [3]) was 1.7 h.

As to `COC(=O)c1c(C(F)(F)F)[nH]c2c(OC(=O)N3CCN(C)CC3CCO)cc3c(c12)[C@H](CCl)CN3C(=O)c1cc2cc(NC(=O)c3cc4cccc(OC)c4o3)ccc2[nH]1` (stereo partly drawn) [Example 6, hydrochloride of methyl (1S)-chloromethyl-5-{[(2RS)-hydroxyethyl-4-methylpiperazin-1-ylcarbonyl]oxy}-3-[5-(7-methoxybenzofuran-2-ylcarbonyl)amino-1H-indol-2-ylcarbonyl]-7-trifluoromethyl-1,2,3,6-tetrahydropyrrolo[3,2-e]indole-8-carboxylate], the “T/C (ratio of average tumor weight of administrated group to control group)” value in series [1] is on record as 0.02. The half-life at 5 µM in series [2] (setting [3]) was 5.8 h.

As to `COC(=O)c1c(C(F)(F)F)[nH]c2c(OC(=O)N3CCC[C@H]3CN3CCCC3)cc3c(c12)[C@H](CCl)CN3C(=O)c1cc2cc(NC(=O)c3cc4cccc(OC)c4o3)ccc2[nH]1` [Example 3, methyl (1S)-chloromethyl-5-{[(2S)-(pyrrolidin-l-ylmethyl)pyrrolidin-1-ylcarbonyl]oxy}-3-[5-(7-methoxybenzofuran-2-ylcarbonyl)amino-1H-indol-2-ylcarbonyl]-7-trifluoromethyl-1,2,3,6-tetrahydropyrrolo[3,2-e]indole-8-carboxylate], the half-life at 5 µM in series [2] (setting [4]) was 1 h.

Consider `COC(=O)c1c(C(F)(F)F)[nH]c2c(OC(=O)N3C[C@H](O)C[C@H]3CO)cc3c(c12)[C@H](CCl)CN3C(=O)c1cc2cc(NC(=O)c3cc4cccc(OC)c4o3)ccc2[nH]1` [Example 2, methyl (1S) -chloromethyl-5-{[(4R)-hydroxy-(2S)-hydroxymethylpyrrolidin-1-ylcarbonyl]oxy}-3-[5-(7-methoxybenzofuran-2-ylcarbonyl)amino-1H-indol-2-ylcarbonyl]-7-trifluoromethyl-1,2,3,6-tetrahydropyrrolo[3,2-e]indole-8-carboxylate], for which the half-life at 5 µM in series [2] (setting [4]) is more than 8 h.

As to `COC(=O)c1c(C(F)(F)F)[nH]c2c(OC(=O)N3CCC[C@H]3CO)cc3c(c12)[C@H](CCl)CN3C(=O)c1cc2cc(NC(=O)c3cc4cccc(OC)c4o3)ccc2[nH]1` [Example 1, methyl (1S)-chloromethyl-5-{[(2S)-hydroxymethylpyrrolidin-1-ylcarbonyl]oxy}-3-[5-(7-methoxybenzofuran-2-ylcarbonyl)amino-1H-indol-2-ylcarbonyl]-7-trifluoromethyl-1,2,3,6-tetrahydropyrrolo[3,2-e]indole-8-carboxylate], the half-life at 5 µM in series [2] (setting [4]) is more than 8 h.

Take `COC(=O)c1c(C(F)(F)F)[nH]c2c(OC(=O)N3CCOCC3CO)cc3c(c12)[C@H](CCl)CN3C(=O)c1cc2cc(NC(=O)c3cc4cccc(OC)c4o3)ccc2[nH]1` (mixture of isomers) [Example 7, methyl (1S)-chloromethyl-5-{[(3RS)-hydroxymethylmorpholin-4-ylcarbonyl]oxy}-3-[5-(7-methoxybenzofuran-2-ylcarbonyl)amino-1H-indol-2-ylcarbonyl]-7-trifluoromethyl-1,2,3,6-tetrahydropyrrolo[3,2-e]indole-8-carboxylate]: the half-life at 5 µM in series [2] (setting [3]) was 1.7 h.
